{"source": "patent EP2502917A1", "about": "“Solid state crystalline forms of 4-(2-ethyl-5-fluoro-2,3-dihydro-1H-inden-2-yl)-1H-imidazole” (Santhera Pharmaceuticals (Schweiz) AG, priority 2011, dated 2012)", "key": {"[1]": {"experiment": "Aqueous solubility by UV/Vis spectroscopy (extinction at 270 nm) of the filtered suspension", "type": "physicochemical", "conditions": "remaining solid is form A, aliquot diluted by a factor of 500, extinction at 270 nm", "procedure": "A suspension of 118 mg fipamezole hydrochloride form B in 1 mL H2O is stirred at room temperature for two days. […] An aliquot of the solution is diluted with water by a factor of 500 and analyzed by UVNis spectroscopy.\nA suspension of 97 mg fipamezole hydrochloride form B* in 0.5 mL H2O is stirred at room temperature for two days. […] An aliquot of the solution is diluted with water by a factor of 500 and analyzed by UVNis spectroscopy.\nA suspension of 110 mg fipamezole hydrochloride form D in 0.5 mL H2O is stirred at room temperature for two days. […] An aliquot of the solution is diluted with water by a factor of 500 and analyzed by UVNis spectroscopy."}, "[2]": {"experiment": "Thermodynamic stability of polymorphs (differential scanning calorimetry)", "type": "physicochemical", "conditions": "enantiotropic pair: form A is the low temperature form, form D the high temperature form", "procedure": "Both forms can be converted into each other, accordingly, forms A and D represent an enantiotropic pair of polymorphs whereby form A is the low temperature form and form D the high temperature form. Differential Scanning Calorimetry (DSC): DSC measurements were carried out on a Perkin Elmer DSC-7. The samples were placed into gold crucibles that were sealed under nitrogen. The measurements were performed with a heating rate of 10 or 20 °C min^-1 over the temperature range from -50 °C to about 200°C."}}, "data": [{"smiles": "CCC1(c2c[nH]cn2)Cc2ccc(F)cc2C1.Cl", "note": "(stereo not shown) [form A, 4-(2-Ethyl-5-fluoro-2,3-dihydro-1H-inden-2-yl)-1H-imidazole hydrochloride]", "values": [{"measurement": "aqueous solubility", "setting": "[1]; suspension of form B* in H2O stirred at room temperature for two days", "result": "about 43 g/L"}, {"measurement": "aqueous solubility", "setting": "[1]; suspension of form D in H2O stirred at room temperature for two days", "result": "about 46 g/L"}, {"measurement": "solubility at 2 days", "setting": "[1]; water, thermodynamic from solid, suspension of form B in H2O stirred at room temperature for two days", "result": "~46", "unit": "mg/mL"}, {"measurement": "thermodynamic stability", "setting": "[2]", "result": "high thermodynamic stability"}]}]}
